Test results published in PMC12516498, “Enzymatic, cell-based, and in silico evaluation of di-substituted aminomethyl-1,2,3-triazole–cinamamide hybrids as mushroom tyrosinase inhibitors” (RSC Advances, 2025).

What was measured:
[1] = DPPH free radical-scavenging assay; settings: 200 µM compound, DPPH 110 µM, 30 min
Procedure: As described previously, radical-scavenging activity was assessed using the 2,2-diphenyl-1-picrylhydrazyl (DPPH) assay. Briefly, the mixture of different concentrations of the compounds and DPPH methanolic solution (110 µM) was shaken in the dark at room temperature for 30 min. The mixture absorbance was measured at 517 nm. Quercetin was used as the positive control.[25]

[2] = MTT assay for cell viability; format: cell-based, murine; settings: mouse, B16F10 melanoma cells, MTT, 72 h, read-out: % Viability ± SE
Procedure: (§1) The cytotoxic activity of all derivatives was determined using the 3-(4,5-dimethylthiazol-2-yl)-2,5-diphenyltetrazolium bromide (MTT) assay. B16F10 were obtained from the Pasteur Institute of Iran (https://en.pasteur.ac.ir/). Cells (at a density of 25 000 cells per ml) were grown at 37 °C in the presence of CO2 5% in DMEM (Gibco BRL, Grand Island, NY, USA), 10% fetal bovine serum (FBS, Gibco BRL). Next, cells were seeded in a 96-well plate and incubated at 37 °C with the derivative at different concentrations for 72 h. Following treatment, cells were incubated with MTT (0.5 mg mL^−1) for 3 h. The MTT-containing medium was then removed, and 100 µL of DMSO was added to each well, mixed thoroughly with a 10-minute shake to dissolve the formazan crystals. The absorbance of each well was measured at 540 nm.[28]

B16F10 melanoma cells [3] = experiment: MTT assay for cell viability; format: cell-based, murine; settings: concentrations ≤100 µM
Procedure: as §1

mushroom tyrosinase = mushroom tyrosinase (Agaricus bisporus, UniProt C7FF04); experiment: Enzyme kinetic study / determination of the inhibition type (Lineweaver–Burk); format: biochemical; settings: Lineweaver–Burk plot: Km increased, Vmax unchanged
Chain of mushroom tyrosinase (C7FF04 2-392): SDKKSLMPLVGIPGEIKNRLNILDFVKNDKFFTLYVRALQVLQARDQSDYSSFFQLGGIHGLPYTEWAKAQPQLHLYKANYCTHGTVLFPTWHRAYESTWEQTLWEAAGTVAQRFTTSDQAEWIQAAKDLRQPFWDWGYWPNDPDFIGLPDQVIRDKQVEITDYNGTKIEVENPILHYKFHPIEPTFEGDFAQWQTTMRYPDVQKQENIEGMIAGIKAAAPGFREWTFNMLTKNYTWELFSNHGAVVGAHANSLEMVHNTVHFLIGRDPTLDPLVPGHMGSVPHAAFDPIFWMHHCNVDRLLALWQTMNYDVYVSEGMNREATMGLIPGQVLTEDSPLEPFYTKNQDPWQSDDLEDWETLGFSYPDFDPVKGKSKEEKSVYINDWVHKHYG
Procedure: The substrate (L-DOPA) concentrations ranged from 0.5 to 2.8 mM according to the previously reported procedures.[24]

B16F10 melanoma cells [4] = experiment: Melanin content assay; format: cell-based, murine; settings: α-MSH 100 nM, 70 µM compound, 48 h, untreated control 92 µg mL^−1
Procedure: The melanin content assay was performed according to previously reported protocols with minor modifications. Briefly, B16F10 cells were seeded in 12-well plates at a density of 50 000 cells per well. After 24 hours of incubation, 100 nM α-MSH was added to each well, followed by the addition of compound 9i five hours later. The plates were then incubated for an additional 48 hours. Subsequently, the cells were washed twice with PBS and harvested using […]. The cell pellets were dissolved in 200 µL of 1 N NaOH containing 10% DMSO and incubated at 80 °C for 2 hours to solubilize the melanin. The absorbance of the resulting supernatant was measured at […] using a microplate reader. The melanin content was quantified using a calibration curve constructed from synthetic melanin standards, measured at 405 nm. Kojic acid was used as a positive control for comparison.[29]

tyrosinase = settings: in Fig. 1; 13–15; read-out: IC50 against Tyrosinase; cited from earlier work

## O=C(C=Cc1ccccc1)NCc1cn(CC(=O)Nc2ccccc2)nn1 [Compound 9a, N-((1-(2-Oxo-2-(phenylamino)ethyl)-1H-1,2,3-triazol-4-yl)methyl)cinnamamide]
[1]
  DPPH radical scavenging % Inhibition at 200 µM: 23.64 ± 4.63%

## O=C(C=Cc1ccccc1)NCc1cn(CC(=O)Nc2ccc(F)cc2)nn1 [Compound 9b, N-((1-(2-((4-Fluorophenyl)amino)-2-oxoethyl)-1H-1,2,3-triazol-4-yl)methyl)cinnamamide]
[1]
  DPPH radical scavenging % Inhibition at 200 µM: 64.18 ± 2.31%

## O=C(C=Cc1ccccc1)NCc1cn(CC(=O)Nc2ccc(Cl)cc2)nn1 [Compound 9c, N-((1-(2-((4-Chlorophenyl)amino)-2-oxoethyl)-1H-1,2,3-triazol-4-yl)methyl)cinnamamide]
[1]
  DPPH radical scavenging % Inhibition at 200 µM: 36.91 ± 0.51%

## O=C(C=Cc1ccccc1)NCc1cn(CC(=O)Nc2ccc(Br)cc2)nn1 [Compound 9d, N-((1-(2-((4-Bromophenyl)amino)-2-oxoethyl)-1H-1,2,3-triazol-4-yl)methyl)cinnamamide]
[1]
  DPPH radical scavenging % Inhibition at 200 µM: 41.09 ± 4.11%

## CCc1ccc(NC(=O)Cn2cc(CNC(=O)C=Cc3ccccc3)nn2)cc1 [Compound 9e, N-((1-(2-((4-Ethylphenyl)amino)-2-oxoethyl)-1H-1,2,3-triazol-4-yl)methyl)cinnamamide]
[1]
  DPPH radical scavenging % Inhibition at 200 µM: 47.36 ± 1.93%

## O=C(C=Cc1ccc(Cl)cc1)NCc1cn(CC(=O)Nc2ccccc2)nn1 [Compound 9f, 3-(4-Chlorophenyl)-N-((1-(2-oxo-2-(phenylamino)ethyl)-1H-1,2,3-triazol-4-yl)methyl)acrylamide]
[1]
  DPPH radical scavenging % Inhibition at 200 µM: 46.18 ± 1.54%

## O=C(C=Cc1ccc(Cl)cc1)NCc1cn(CC(=O)Nc2ccc(F)cc2)nn1 [Compound 9g, 3-(4-Chlorophenyl)-N-((1-(2-((4-fluorophenyl)amino)-2-oxoethyl)-1H-1,2,3-triazol-4-yl)methyl)acrylamide]
[1]
  DPPH radical scavenging % Inhibition at 200 µM: 45.73 ± 3.47%

## O=C(C=Cc1ccc(Cl)cc1)NCc1cn(CC(=O)Nc2ccc(Cl)cc2)nn1 [Compound 9h, 3-(4-Chlorophenyl)-N-((1-(2-((4-chlorophenyl)amino)-2-oxoethyl)-1H-1,2,3-triazol-4-yl)methyl)acrylamide]
[1]
  DPPH radical scavenging % Inhibition at 200 µM: 22.82 ± 0.90%

## O=C(C=Cc1ccc(Cl)cc1)NCc1cn(CC(=O)Nc2ccc(Br)cc2)nn1 [Compound 9i, N-((1-(2-((4-Bromophenyl)amino)-2-oxoethyl)-1H-1,2,3-triazol-4-yl)methyl)-3-(4-chlorophenyl)acrylamide]
[2]; B16F10, 100 µM
  viability at 72 h, 100 µM: > 80%
[2]; B16F10, 150 µM
  viability at 72 h, 150 µM: 58.2 ± 3.43%
[2]; B16F10, 200 µM
  viability at 72 h, 200 µM: 51.2 ± 4.34%
B16F10 melanoma cells [3]
  Cytotoxicity to B16F10 melanoma cells (in words): low cytotoxicity
Mushroom tyrosinase
  Inhibition type: competitive inhibition
B16F10 melanoma cells [4]
  Intracellular melanin content: 62 µg/mL
[1]
  DPPH radical scavenging % Inhibition at 200 µM: 51.82 ± 2.31%

## CCc1ccc(NC(=O)Cn2cc(CNC(=O)C=Cc3ccc(Cl)cc3)nn2)cc1 [Compound 9j, 3-(4-Chlorophenyl)-N-((1-(2-((4-ethylphenyl)amino)-2-oxoethyl)-1H-1,2,3-triazol-4-yl)methyl)acrylamide]
[1]
  DPPH radical scavenging % Inhibition at 200 µM: 82.36 ± 5.91%

## COc1ccc(NC(=O)Cn2cc(CNC(=O)C=Cc3ccc(Cl)cc3)nn2)cc1 [Compound 9k, 3-(4-Chlorophenyl)-N-((1-(2-((4-methoxyphenyl)amino)-2-oxoethyl)-1H-1,2,3-triazol-4-yl)methyl)acrylamide]
[1]
  DPPH radical scavenging % Inhibition at 200 µM: 55.28 ± 0.16%

## COc1ccc(C=CC(=O)NCc2cn(CC(=O)Nc3ccccc3)nn2)cc1 [Compound 9l, 3-(4-Methoxyphenyl)-N-((1-(2-oxo-2-(phenylamino)ethyl)-1H-1,2,3-triazol-4-yl)methyl)acrylamide]
[1]
  DPPH radical scavenging % Inhibition at 200 µM: 43.91 ± 4.50%

## COc1ccc(C=CC(=O)NCc2cn(CC(=O)Nc3ccc(F)cc3)nn2)cc1 [Compound 9m, N-((1-(2-((4-Fluorophenyl)amino)-2-oxoethyl)-1H-1,2,3-triazol-4-yl)methyl)-3-(4-methoxyphenyl)acrylamide]
[1]
  DPPH radical scavenging % Inhibition at 200 µM: 60.18 ± 6.94%

## COc1ccc(C=CC(=O)NCc2cn(CC(=O)Nc3ccc(Cl)cc3)nn2)cc1 [Compound 9n, N-((1-(2-((4-Chlorophenyl)amino)-2-oxoethyl)-1H-1,2,3-triazol-4-yl)methyl)-3-(4-methoxyphenyl)acrylamide]
[1]
  DPPH radical scavenging % Inhibition at 200 µM: 68.64 ± 7.33%

## COc1ccc(C=CC(=O)NCc2cn(CC(=O)Nc3ccc(Br)cc3)nn2)cc1 [Compound 9o, N-((1-(2-((4-Bromophenyl)amino)-2-oxoethyl)-1H-1,2,3-triazol-4-yl)methyl)-3-(4-methoxyphenyl)acrylamide]
[1]
  DPPH radical scavenging % Inhibition at 200 µM: 57.09 ± 6.17%

## CCc1ccc(NC(=O)Cn2cc(CNC(=O)C=Cc3ccc(OC)cc3)nn2)cc1 [Compound 9p, N-((1-(2-((4-Ethylphenyl)amino)-2-oxoethyl)-1H-1,2,3-triazol-4-yl)methyl)-3-(4 methoxyphenyl)acrylamide]
[1]
  DPPH radical scavenging % Inhibition at 200 µM: 40.73 ± 5.91%

## COc1ccc(C=CC(=O)NCc2cn(CC(=O)Nc3ccc(OC)cc3)nn2)cc1 [Compound 9q, 3-(4-Methoxyphenyl)-N-((1-(2-((4-methoxyphenyl)amino)-2-oxoethyl)-1H-1,2,3-triazol-4-yl)methyl)acrylamide]
[1]
  DPPH radical scavenging % Inhibition at 200 µM: 61.51 ± 3.74%

## NC(=S)N/N=C/c1ccc(OCc2cn(Cc3ccc(F)cc3)nn2)cc1 [D]
tyrosinase
  IC50: 0.22 µM

## Clc1ccc(Cn2cc(COc3ccc(-c4nc5ccccc5[nH]4)cc3)nn2)cc1Cl [E]
tyrosinase
  IC50: 9.42 µM

## O=c1cc(Cn2cc(Oc3ccc4ccccc4c3)nn2)occ1O [F]
tyrosinase
  IC50: 0.3 µM
